Values joined by “and” are separate entries in the source; they are usually repeats but may differ in a detail not shown here. Equal entries are not always repeated.
Target: T1, canine TRPM8 (Canis lupus familiaris, UniProt Q1A7N1)
T1 construct: expressed in transfected cells
Experiment: In vitro canine TRPM8 functional assay (Ca2+-sensitive dye, icilin activation; Table 4 TRPM8 Screening)
Assay type: cell-based
Settings: HEK293 cells expressing canine TRPM8, icilin activation; for % I (1 μM): compound at 1 μM; for % I (5 μM): compound at 5 μM
Method: The functional activity of compounds of Formula (I) was determined by measuring changes in intracellular calcium concentration using a Ca^2+-sensitive fluorescent dye. The changes in fluorescent signal were monitored by a fluorescence plate reader, either a FLIPR™ (Molecular Devices) or FDSS (Hamamatsu).
HEK293 cells stably expressing canine TRPM8 were routinely grown as monolayers in Dulbecco's minimum essential medium supplemented with 10% FBS, 1 mM L-glutamine, 100 units/mL penicillin, 100 ug/mL streptomycin and 400 μg/mL G418. Cells were maintained in 5% CO2 at 37° C. At 24 hrs prior to assay, cells were seeded in clear-base poly-D-lysine coated 384-well plates (BD Biosciences, NJ, USA) at a density of 5,000 cells per well in culture medium and grown overnight in 5% CO2 at 37° C. On assay day, growth media was removed and cells were loaded with Calcium 3 Dye (Molecular Devices) for 35 min at 37° C., under 5% CO2 and then for 25 min at room temperature and atmosphere. Subsequently, cells were tested for agonist-induced increases in intracellular Ca^2+ levels using FLIPR™ or FDSS. Cells were challenged with a compound of Formula (I) (at varying concentrations) and intracellular Ca^2+ was measured for 5 min prior to the addition of icilin to all wells to achieve a final concentration which produces approximately an 80% maximal response.
Basal FI was subtracted prior to normalizing data to percent of maximal response. Curves were generated using the average of quadruplicate wells for each data point, were analyzed using nonlinear regression of either sigmoidal dose response or sigmoidal dose response (variable slope). Finally, the EC50 and IC50 values were calculated with the best-fit dose curve determined by GraphPad Prism.

T1 sequence (Q1A7N1 1-1104): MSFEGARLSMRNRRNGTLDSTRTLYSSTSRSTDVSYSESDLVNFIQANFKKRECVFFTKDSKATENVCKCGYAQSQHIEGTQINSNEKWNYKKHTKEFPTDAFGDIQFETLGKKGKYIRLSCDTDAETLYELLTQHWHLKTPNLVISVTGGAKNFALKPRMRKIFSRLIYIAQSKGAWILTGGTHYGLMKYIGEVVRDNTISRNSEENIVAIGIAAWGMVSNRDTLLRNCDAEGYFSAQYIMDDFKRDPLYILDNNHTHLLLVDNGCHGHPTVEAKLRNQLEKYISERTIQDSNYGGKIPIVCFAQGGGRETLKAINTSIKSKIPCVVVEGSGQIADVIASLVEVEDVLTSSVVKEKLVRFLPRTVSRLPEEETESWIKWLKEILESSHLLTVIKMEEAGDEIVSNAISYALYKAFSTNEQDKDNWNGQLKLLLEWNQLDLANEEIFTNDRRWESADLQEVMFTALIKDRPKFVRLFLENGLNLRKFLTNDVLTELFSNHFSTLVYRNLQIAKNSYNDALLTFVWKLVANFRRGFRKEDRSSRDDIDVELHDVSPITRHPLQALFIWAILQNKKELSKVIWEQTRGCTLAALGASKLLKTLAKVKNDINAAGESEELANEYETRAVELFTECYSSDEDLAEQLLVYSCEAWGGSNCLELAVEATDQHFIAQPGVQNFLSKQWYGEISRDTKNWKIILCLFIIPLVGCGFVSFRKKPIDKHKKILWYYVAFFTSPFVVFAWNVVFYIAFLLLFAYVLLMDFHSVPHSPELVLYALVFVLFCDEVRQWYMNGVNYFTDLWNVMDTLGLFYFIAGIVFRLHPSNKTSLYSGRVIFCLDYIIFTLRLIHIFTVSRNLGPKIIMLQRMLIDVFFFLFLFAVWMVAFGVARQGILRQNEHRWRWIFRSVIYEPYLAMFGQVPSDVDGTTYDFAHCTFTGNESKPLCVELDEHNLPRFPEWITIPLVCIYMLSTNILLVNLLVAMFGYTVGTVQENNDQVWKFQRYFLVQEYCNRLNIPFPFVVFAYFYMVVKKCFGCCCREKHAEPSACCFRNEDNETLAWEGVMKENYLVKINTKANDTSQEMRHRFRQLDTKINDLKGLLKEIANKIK

## [2-(3,4-Difluoro-phenyl)-1-(3-methyl-benzo[b]thiophene-2-yl)-ethyl]-methyl-phosphonic acid ethyl ester [Cpd 30]
  % I (1 μM): 100% and 99%

## COc1cc(CC(c2sc3ccccc3c2Br)P(=O)(OC(C)C)OC(C)C)ccc1F (centres unmarked) [Cpd 157]
Compound at 0.5 μM
  % I (0.5 μM): 98%

## CCOP(=O)(OCC)C(Cc1ccccc1C(F)(F)F)c1sc2ccccc2c1C (centres unmarked) [Cpd 59]
  % I (1 μM): 99%

## CCOP(=O)(OCC)C(Cc1cc(C(F)(F)F)cc(C(F)(F)F)c1)c1sc2ccccc2c1Cl (racemic) [Cpd 282]
Compound at 0.5 μM
  % I (0.5 μM): 100%

## CCOP(=O)(OCC)C(Cc1ccccc1-c1ccccc1)c1sc2ccccc2c1C (centres unmarked) [Cpd 115]
  % I (1 μM): 69%

## CCCS(=O)(=O)n1c(C(Cc2ccc(F)c(C(F)(F)F)c2)P(=O)(OC(C)C)OC(C)C)c(Br)c2ccccc21 (centres unmarked) [Cpd 332]
Compound at 0.5 μM
  % I (0.5 μM): 72%

## CCOP(=O)(Cc1cc2ccccc2s1)OCc1ccccc1Cl (racemic) [Cpd 105]
  % I (1 μM): 48%
  % I (5 μM): 100%

## Cc1c(C(Cc2ccc(F)c(F)c2)P(=O)(OC(C)C)OC(C)C)oc2ccccc12 (centres unmarked) [Cpd 11]
  % I (1 μM): 99%

## CCC(C)P(=O)(C(C)CC)C(Cc1ccc(F)c(F)c1)c1sc2ccccc2c1Br (centres unmarked) [Cpd 203]
  % I (1 μM): 96%

## CC(C)OP(=O)(OC(C)C)C(Cc1ccccc1F)c1sc2cc(Br)ccc2c1Br (centres unmarked) [Cpd 199]
  % I (1 μM): 81%

## CCOP(=O)(OCC)C(Cc1ccc(F)c(F)c1)c1sc2ccccc2c1-c1cccc(C(N)=O)c1 (racemic) [Cpd 218]
Compound at 0.5 μM
  % I (0.5 μM): 79%

## CC(C)OP(=O)(OC(C)C)C(Cc1cc(C(F)(F)F)ccc1Cl)c1sc2ccccc2c1Cl (centres unmarked) [Cpd 178]
Compound at 0.5 μM
  % I (0.5 μM): 79%

## [2-(3,4-Difluoro-phenyl)-1-(3-methyl-benzo[b]thiophene-2-yl)-ethyl]-[3-(4-methoxy-phenyl)-propyl]-phosphonic acid ethyl ester [Cpd 135]
  % I (1 μM): 90%

## CC(C)OP(=O)(OC(C)C)C(Cc1ccc(F)c(C(F)(F)F)c1)c1c(Br)c2ccccc2n1C(=O)OC(C)(C)C (centres unmarked) [Cpd 327, 3-Bromo-2-[1-(diisopropoxy-phosphoryl)-2-(4-fluoro-3-trifluoromethyl-phenyl)-ethyl]-indole-1-carboxylic acid tert-butyl ester]
Compound at 0.5 μM, read-out: % I (0.5 μM)
  inhibition at 0.5 µM: 44%

## CCOP(=O)(OCC)C(Cc1ccc(F)c(F)c1)c1sc2ccccc2c1-c1cccc(C(=O)OC)c1 (centres unmarked) [Cpd 219]
Compound at 0.5 μM
  % I (0.5 μM): 68%

## CC(C)OP(=O)(OC(C)C)C(Cc1cccc(O)c1)c1sc2ccccc2c1Br (centres unmarked) [Cpd 325]
Compound at 0.5 μM
  % I (0.5 μM): 97%

## CC(C)OP(=O)(OC(C)C)C(Cc1ccc(S(C)(=O)=O)cc1)c1sc2ccccc2c1Br (centres unmarked) [Cpd 252]
Compound at 0.5 μM
  % I (0.5 μM): 44%

## CCOP(=O)(OCC)C(Cc1cccc(C(F)(F)F)c1)c1sc2ccccc2c1Br (centres unmarked) [Cpd 141]
Compound at 0.5 μM
  % I (0.5 μM): 100%

## CCOP(=O)(CC(C)C)C(Cc1ccc(F)c(F)c1)c1sc2ccccc2c1C (centres unmarked) [Cpd 6, [2-(3,4-Difluoro-phenyl)-1-(3-methyl-benzo[b]thiophene-2-yl)-ethyl]-isobutyl-phosphonic acid ethyl ester]
  % I (1 μM): 100%

## CCOP(=O)(OCC)C(Cc1cc(C(F)(F)F)ccc1C(F)(F)F)c1sc2ccccc2c1C (centres unmarked) [Cpd 113]
  % I (1 μM): 25%

## CCOP(=O)(OCC)C(Cc1ccc(F)c(OC)c1)c1sc2ccccc2c1Br (centres unmarked) [Cpd 156]
Compound at 0.5 μM
  % I (0.5 μM): 98%

## CCOP(=O)(OCC)C(Cc1ccccc1OC(F)(F)F)c1sc2ccccc2c1C (centres unmarked) [Cpd 61]
  % I (1 μM): 100%

## CC(C)OP(=O)(OC(C)C)C(Cc1cc(C(F)(F)F)cc(C(F)(F)F)c1)c1sc2ccccc2c1Cl (racemic) [Cpd 171]
Compound at 0.5 μM
  % I (0.5 μM): 95%

## CC(C)OP(=O)(OC(C)C)[C@H](Cc1ccc(F)c(F)c1)c1sc2ccccc2c1Br [Cpd 235, (R)-[1-(3-Bromo-benzo[b]thiophen-2-yl)-2-(3,4-difluoro-phenyl)-ethyl]-phosphonic acid diisopropyl ester]
Compound at 0.5 μM
  % I (0.5 μM): 93%

## CC(C)CCOP(=O)(OCCC(C)C)C(Cc1ccc(F)c(F)c1)c1sc2ccccc2c1Br (racemic) [Cpd 211]
Compound at 0.5 μM
  % I (0.5 μM): 97%

## CCOP(=O)(OCC)C(Cc1ccc(OC(F)(F)F)cc1)c1sc2ccccc2c1Br (centres unmarked) [Cpd 155, [1-(3-Bromo-benzo[b]thiophen-2-yl)-2-(4-trifluoromethoxyphenyl)-ethyl]-phosphonic acid diethyl ester]
Compound at 0.5 μM
  % I (0.5 μM): 101% and 102%

## CC(C)OP(=O)(OC(C)C)C(Cc1c(F)c(F)c(O)c(F)c1F)c1sc2ccccc2c1Br (racemic) [Cpd 229]
Compound at 0.5 μM
  % I (0.5 μM): 95%

## CCOP(=O)(Cc1cc2ccccc2s1)OCc1ccccc1Br (centres unmarked) [Cpd 110]
  % I (1 μM): 11%
  % I (5 μM): 96%

## COP(=O)(OC)C(Cc1ccc(F)c(F)c1)c1sc2ccccc2c1Br (centres unmarked) [Cpd 201]
  % I (1 μM): 100%

## [2-(3,4-Difluoro-phenyl)-1-(3-methyl-benzo[b]thiophene-2-yl)-ethyl]-methyl-phosphonic acid ethyl ester [Cpd 106]
  % I (1 μM): 32%

## CCOP(=O)(OCC)C(Cc1cccc(F)c1F)c1sc2ccccc2c1C (centres unmarked) [Cpd 10]
  % I (1 μM): 100%

## CCOP(=O)(OCC)C(Cc1ccccc1Br)c1sc2ccccc2c1C (centres unmarked) [Cpd 66]
  % I (1 μM): 100%

## (R)-[1-(3-Bromo-benzo[b]thiophen-2-yl)-2-(4-trifluoromethoxy-phenyl)ethyl]-phosphonic acid diisopropyl ester [Cpd 237]
Compound at 0.5 μM
  % I (0.5 μM): 96% and 70%

## CCOP(=O)(OCC)C(Cc1cccc(Cl)c1Cl)c1sc2ccccc2c1C (centres unmarked) [Cpd 35]
  % I (1 μM): 100%

## CCOP(=O)(OCC)C(Cc1c(Cl)cccc1Cl)c1cc2ccccc2s1 (centres unmarked) [Cpd 95]
  % I (1 μM): 89%
  % I (5 μM): 100%

## COCCOCCOP(=O)(OCCOCCOC)C(Cc1ccc(F)c(F)c1)c1sc2ccccc2c1Br (centres unmarked) [Cpd 210]
Compound at 0.5 μM
  % I (0.5 μM): 62%

## CC(C)OP(=O)(OC(C)C)C(Cc1ccc(O)c(F)c1)c1sc2ccccc2c1Br (centres unmarked) [Cpd 227]
Compound at 0.5 μM
  % I (0.5 μM): 52%

## CCOP(=O)(OCC)C(Cc1cccc(C(F)(F)F)c1F)c1sc2ccccc2c1C (centres unmarked) [Cpd 37]
  % I (1 μM): 100%

## [2-(3,4-Difluoro-phenyl)-1-(3-methyl-benzo[b]thiophene-2-yl)-ethyl]-[3-(4-methoxy-phenyl)-propyl]-phosphonic acid ethyl ester [Cpd 136]
  % I (1 μM): 91%

## CCOP(=O)(OCC)C(Cc1cc(C(F)(F)F)cc(Cl)c1F)c1sc2ccccc2c1C (centres unmarked) [Cpd 73]
  % I (1 μM): 100%

## CCOP(=O)(OCC)C(Cc1c(Cl)ccc(C)c1F)c1sc2ccccc2c1C (centres unmarked) [Cpd 60]
  % I (1 μM): 100%

## CCOP(=O)(OCC)C(Cc1ccccc1C(F)(F)F)c1cc2ccccc2s1 (centres unmarked) [Cpd 102]
  % I (1 μM): 86%

## CCOP(=O)(OCC)C(Cc1cc2ccccc2s1)c1cc2ccccc2s1 (centres unmarked) [Cpd 90]
  % I (1 μM): 89%

## CCOP(=O)(OCC)C(Cc1ccc(F)c(F)c1)c1sc2ccccc2c1-c1ccccc1F (racemic) [Cpd 216]
Compound at 0.5 μM
  % I (0.5 μM): 100%

## CCOP(=O)(OCC)C(Cc1ccc(F)c(F)c1)c1cc2cccnc2s1 (centres unmarked) [Cpd 131]
  % I (1 μM): 28%

## CCOP(=O)(OCC)C(Cc1ccccc1C)c1sc2ccccc2c1C (centres unmarked) [Cpd 26]
  % I (1 μM): 100%

## CCOP(=O)(OCC)C(Cc1ccccc1F)c1cc2ccccc2s1 (centres unmarked) [Cpd 80]
  % I (1 μM): 93%
  % I (5 μM): 100%

## CCOP(=O)(OCC)C(Cc1ccc(F)c(F)c1)c1c(C)c2ccccc2[s+]1[O-] (centres unmarked) [Cpd 118]
  % I (1 μM): 23%

## CCOP(=O)(OCC)C(Cc1cc(C(F)(F)F)ccc1F)c1sc2ccccc2c1C (centres unmarked) [Cpd 67]
  % I (1 μM): 100%

## CCOP(=O)(OCC)C(Cc1ccccc1)c1cc2ccccc2s1 (centres unmarked) [Cpd 74]
  % I (1 μM): 92%

## CCCP(=O)(CCC)C(OCc1ccc(F)c(F)c1)c1sc2ccccc2c1C (centres unmarked) [Cpd 42]
  % I (1 μM): 100%

## Cc1c(C(Cc2ccc(F)c(F)c2)P(=O)(OCC(C)(C)C)OCC(C)(C)C)sc2ccccc12 (centres unmarked) [Cpd 53, [2-(3,4-Difluoro-phenyl)-1-(3-methyl-benzo[b]thiophen-2-yl)ethyl]-phosphonic acid bis-(2,2-dimethyl-propyl) ester]
  % I (1 μM): 97%

## CCOP(=O)(OCC)C(Cc1ccc(O)c(F)c1)c1sc2ccccc2c1Br (centres unmarked) [Cpd 226]
Compound at 0.5 μM
  % I (0.5 μM): 34%

## CC(C)OP(=O)(OC(C)C)C(Cc1ccccc1F)c1sc2cccc(Br)c2c1Br (centres unmarked) [Cpd 198]
  % I (1 μM): 98%

## CC(C)OP(=O)(OC(C)C)C(Cc1cc(O)c(Cl)cc1F)c1sc2ccccc2c1Br (racemic) [Cpd 232]
Compound at 0.5 μM
  % I (0.5 μM): 99%

## CCOP(=O)(OCC)C(Cc1cc2c(cc1Cl)OCO2)c1cc2ccccc2s1 (centres unmarked) [Cpd 112]
  % I (1 μM): 42%

## CCOP(=O)(OCC)C(Cc1cccc(C(F)(F)F)c1Cl)c1sc2ccccc2c1C (centres unmarked) [Cpd 81]
  % I (1 μM): 100% and 87%

## CCOP(=O)(OCC)C(Cc1ccc(F)c(F)c1)c1cc2ccccc2o1 (centres unmarked) [Cpd 265]
  % I (1 μM): 95%

## CCOP(=O)(OCC)C(Cc1cc(O)cc(O)c1)c1sc2ccccc2c1Br (centres unmarked) [Cpd 322]
Compound at 0.5 μM
  % I (0.5 μM): 45%

## CC(C)OP(=O)(OC(C)C)C(Cc1cccc(C(F)(F)F)c1)c1cc2ccccc2s1 (centres unmarked) [Cpd 69]
  % I (1 μM): 99%

## CCOP(=O)(OCC)C(Cc1cc(F)cc(F)c1Cl)c1sc2ccccc2c1C (centres unmarked) [Cpd 28]
  % I (1 μM): 100%
